{"source": "patent US10792272B2", "about": "“Methods for treatment of Clostridium difficile infections” (priority 2016, dated 2020)", "key": {"[1]": {"system": "C. difficile 630 (CD630, ATCC BAA-1382)", "experiment": "MIC by broth microdilution against C. difficile 630", "type": "cell-based, Clostridium difficile", "settings": "20-24 h, 37° C.; for MIC: Clostridioides difficile, ATCCBAA1382"}, "[2]": {"system": "C. difficile 4118 (CD4118, ATCC BAA-1870, BI/NAP1/027)", "experiment": "MIC by broth microdilution against C. difficile 4118", "type": "cell-based, Clostridium difficile", "settings": "for MIC: Clostridioides difficile, ATCCBAA1870"}, "[3]": {"system": "C. difficile strains 630 (CD630) and 4118 (CD4118)", "experiment": "MIC / growth inhibition against C. difficile, covering both strains", "type": "cell-based, Clostridium difficile", "settings": "for MIC: Clostridioides difficile, read-out: MIC against C. difficile"}, "[4]": {"system": "B. thetaiotaomicron ATCC 29148", "experiment": "microbe, parasite or virus in culture", "type": "cell-based"}, "[5]": {"system": "P. distasonis ATCC 8503", "experiment": "MIC against anaerobic bacteria", "type": "cell-based, Parabacteroides distasonis"}, "[6]": {"system": "A. baumannii M2", "experiment": "MIC against aerobic bacteria", "type": "cell-based"}, "[7]": {"system": "S. aureus RN4220", "experiment": "MIC against aerobic bacteria", "type": "cell-based", "settings": "for MIC: Staphylococcus aureus"}, "[8]": {"system": "S. epidermidis 1457", "experiment": "MIC against aerobic bacteria", "type": "cell-based"}, "[9]": {"system": "C. clostridioforme ATCC 25537", "experiment": "MIC against anaerobic bacteria", "type": "cell-based, Clostridium clostridioforme"}, "[10]": {"system": "P. aeruginosa PAO1", "experiment": "MIC against aerobic bacteria", "type": "cell-based, Pseudomonas aeruginosa"}, "[11]": {"system": "C. sporogenes ATCC 15579", "experiment": "microbe, parasite or virus in culture", "type": "cell-based, Clostridium sporogenes", "settings": "for MIC: Clostridium sporogenes, ATCC15579, read-out: MIC C. sporogenes ATCC 15579"}, "[12]": {"system": "B. subtilis ATCC 6051", "experiment": "MIC against aerobic bacteria", "type": "cell-based, Bacillus subtilis"}, "[13]": {"system": "P. nigrescens ATCC 33563", "experiment": "MIC against anaerobic bacteria", "type": "cell-based, Prevotella nigrescens"}, "[14]": {"system": "panel of aerobic and anaerobic organisms", "type": "cell-based"}, "[15]": {"system": "Clostridium difficile strain 4118", "experiment": "Minimum bactericidal concentration (MBC), logarithmic- and stationary-phase cells", "type": "cell-based", "settings": "3-log reduction of inoculum; for MBC: Clostridioides difficile", "description": "The MBClog values of the protonophores were determined to be 0.25-2 μg/mL (˜4 to 8-fold greater than their respective MIC values).\nClostridium difficile strain 4118 was grown to OD600˜0.4-0.5 (logarithmic phase) or for 24 h (stationary phase), and thereafter added to two-fold serial dilutions of test compounds. Cultures were incubated for 20-24 h at 37° C., and then viable counts were enumerated on BHIS agar plates. […] MBC measurements were performed in duplicate."}, "[16]": {"system": "embryonic kidney HEK 293T/17", "experiment": "In vitro cytotoxicity MTS assay, HEK 293T/17", "settings": "0.125 μg/mL; 16 h"}, "[17]": {"system": "liver carcinoma HepG2", "experiment": "In vitro cytotoxicity MTS assay, HepG2", "settings": "0.125 μg/mL; 16 h"}, "[18]": {"settings": "Table 1, strain 4118, 20-24 h, 37° C."}, "[19]": {"settings": "Table 1, strain 4118, 20-24 h, 37° C., read-out: MIC C. difficile 4118"}}, "note": "Like-named read-outs stand apart in the source and are kept apart here.", "data": [{"smiles": "O=C(Nc1ccc(Oc2ccc(Cl)cc2)cc1)c1cc(I)cc(I)c1O", "note": "[Compound 5g]", "values": [{"measurement": "MIC C. difficile 630", "setting": "[1]; Table 1, strain 630", "value": 0.13, "unit": "µg/mL"}, {"measurement": "MIC C. difficile 4118", "setting": "[2]; [18]", "value": 0.25, "unit": "µg/mL"}, {"measurement": "growth inhibitory activity against CD630 and CD4118 (in words)", "setting": "[3]", "value": "high in vitro potency"}]}, {"smiles": "O=C(Nc1ccc(I)cc1)c1cc(I)cc(I)c1O", "note": "[Compound 7d]", "values": [{"measurement": "MIC C. difficile 630", "setting": "[1]; Table 1, strain 630", "value": 0.13, "unit": "µg/mL"}, {"measurement": "MIC C. difficile 4118", "setting": "[2]; [18]", "value": 0.25, "unit": "µg/mL"}]}, {"smiles": "COc1c(I)cc(I)cc1C(=O)Nc1ccc(Oc2ccccc2)cc1", "note": "[Compound 5b]", "values": [{"measurement": "MIC C. difficile 630", "setting": "[1]; Table 1, strain 630", "value": ">32", "unit": "µg/mL"}, {"measurement": "MIC C. difficile 4118", "setting": "[2]; [18]", "value": ">32", "unit": "µg/mL"}, {"measurement": "growth inhibitory activity against CD630 and CD4118 (in words)", "setting": "[3]", "value": "inactive"}]}, {"smiles": "O=C(Nc1ccc(Cl)cc1)c1cc(I)cc(I)c1O", "note": "[Compound 7b]", "values": [{"measurement": "MIC B. thetaiotaomicron ATCC 29148", "setting": "[4]; anaerobic", "value": ">32", "unit": "µg/mL"}, {"measurement": "MIC P. distasonis ATCC 8503", "setting": "[5]; anaerobic", "value": 8, "unit": "µg/mL"}, {"measurement": "MIC A. baumannii M2", "setting": "[6]; aerobic", "value": 32, "unit": "µg/mL"}, {"measurement": "MIC S. aureus RN4220", "setting": "[7]; aerobic", "value": 0.06, "unit": "µg/mL"}, {"measurement": "MIC S. epidermidis 1457", "setting": "[8]; aerobic", "value": "≤0.03", "unit": "µg/mL"}, {"measurement": "MIC C. clostridioforme ATCC 25537", "setting": "[9]; anaerobic", "value": 16, "unit": "µg/mL"}, {"measurement": "MIC C. difficile 630", "setting": "[1]; Table 1, strain 630", "value": 0.25, "unit": "µg/mL"}, {"measurement": "MIC P. aeruginosa PAO1", "setting": "[10]; aerobic", "value": ">32", "unit": "µg/mL"}, {"measurement": "MIC C. sporogenes ATCC 15579", "setting": "[11]", "value": 16, "unit": "µg/mL"}, {"measurement": "MIC B. subtilis ATCC 6051", "setting": "[12]; aerobic", "value": 0.06, "unit": "µg/mL"}, {"measurement": "MIC P. nigrescens ATCC 33563", "setting": "[13]; anaerobic", "value": 4, "unit": "µg/mL"}, {"measurement": "MIC C. difficile 4118", "setting": "[2]; [18]", "value": 0.5, "unit": "µg/mL"}]}, {"smiles": "CN[C@H](CC(C)C)C(=O)N[C@H]1C(=O)N[C@@H](CC(N)=O)C(=O)N[C@H]2C(=O)N[C@H]3C(=O)N[C@H](C(=O)N[C@H](C(=O)O)c4cc(O)cc(O)c4-c4cc3ccc4O)[C@H](O)c3ccc(c(Cl)c3)Oc3cc2cc(c3O[C@@H]2O[C@H](CO)[C@@H](O)[C@H](O)[C@H]2O[C@H]2C[C@](C)(N)[C@H](O)[C@H](C)O2)Oc2ccc(cc2Cl)[C@H]1O", "note": "[Vancomycin, vancomycin, reference compound]", "values": [{"measurement": "MIC", "setting": "[4]; Bacteroides thetaiotaomicron, ATCC29148, read-out: MIC B. thetaiotaomicron ATCC 29148", "value": "> 32", "unit": "µg/mL"}, {"measurement": "MIC", "setting": "[5]; Parabacteroides distasonis, ATCC8503, read-out: MIC P. distasonis ATCC 8503", "value": "> 32", "unit": "µg/mL"}, {"measurement": "MIC", "setting": "[6]; Acinetobacter baumannii, M2, read-out: MIC A. baumannii M2", "value": "> 32", "unit": "µg/mL"}, {"measurement": "MIC", "setting": "[7]; RN4220, read-out: MIC S. aureus RN4220", "value": 1, "unit": "µg/mL"}, {"measurement": "antibacterial spectrum (in words)", "setting": "[14]", "value": "Gram-positive organisms"}, {"measurement": "MIC", "setting": "[8]; Staphylococcus epidermidis, 1457, read-out: MIC S. epidermidis 1457", "value": 2, "unit": "µg/mL"}, {"measurement": "MIC", "setting": "[9]; Clostridium, ATCC25537, read-out: MIC C. clostridioforme ATCC 25537", "value": 0.5, "unit": "µg/mL"}, {"measurement": "MIC", "setting": "[1]", "value": 1, "unit": "µg/mL"}, {"measurement": "MBC", "setting": "[15]; logarithmic-phase cells of strain 4118, read-out: MBClog", "value": 8, "unit": "µg/mL"}, {"measurement": "MBC", "setting": "[15]; stationary-phase cells of strain 4118, read-out: MBCstat", "value": "> 32", "unit": "µg/mL"}, {"measurement": "MBCstat", "setting": "[15]; stationary-phase cells of strain 4118", "value": ">32", "unit": "µg/mL"}, {"measurement": "MIC", "setting": "[10]; Pseudomonas aeruginosa, PAO1, read-out: MIC P. aeruginosa PAO1", "value": "> 32", "unit": "µg/mL"}, {"measurement": "MIC", "setting": "[11]", "value": 2, "unit": "µg/mL"}, {"measurement": "MIC", "setting": "[12]; Bacillus subtilis, ATCC6051, read-out: MIC B. subtilis ATCC 6051", "value": 0.13, "unit": "µg/mL"}, {"measurement": "MIC", "setting": "[13]; Prevotella nigrescens, ATCC33563, read-out: MIC P. nigrescens ATCC 33563", "value": "> 32", "unit": "µg/mL"}, {"measurement": "MIC", "setting": "[2]", "value": 2, "unit": "µg/mL"}, {"measurement": "MIC", "setting": "[2]; 20-24 h, 37° C., read-out: MIC C. difficile 4118", "value": 2, "unit": "µg/mL"}, {"measurement": "MIC", "setting": "[3]", "value": "1 to 2", "unit": "µg/mL"}]}, {"smiles": "O=C(Nc1ccc(Oc2ccc(F)cc2)cc1)c1cc(I)cc(I)c1O", "note": "[Compound 5e]", "values": [{"measurement": "MIC C. difficile 630", "setting": "[1]; Table 1, strain 630", "value": 0.13, "unit": "µg/mL"}, {"measurement": "MIC C. difficile 4118", "setting": "[2]; [18]", "value": 0.13, "unit": "µg/mL"}, {"measurement": "growth inhibitory activity against CD630 and CD4118 (in words)", "setting": "[3]", "value": "high in vitro potency"}]}, {"smiles": "O=C(Nc1ccc(Oc2ccc(Cl)cc2)cc1)c1cc(Cl)cc(Cl)c1O", "note": "[Compound 8, 3,5-Dichloro-N-(4-(4-chlorophenoxy)phenyl)-2-hydroxybenzamide]", "values": [{"measurement": "MIC", "setting": "[7]; RN4220, aerobic, read-out: MIC S. aureus RN4220", "value": 0.13, "unit": "µg/mL"}, {"measurement": "MIC", "setting": "[1]; Table 1, strain 630", "value": "≤ 0.03", "unit": "µg/mL"}, {"measurement": "MIC", "setting": "[11]", "value": 4, "unit": "µg/mL"}, {"measurement": "MIC", "setting": "[2]; [19]", "value": 0.06, "unit": "µg/mL"}, {"measurement": "MIC", "setting": "[3]; one statement covering CD630 and CD4118", "value": "≤ 0.13", "unit": "µg/mL"}, {"measurement": "enhancement of potency relative to 5g and metronidazole", "setting": "[3]; MIC ratio, Table 1", "value": 4, "unit": "fold"}, {"measurement": "improvement of activity over vancomycin", "setting": "[3]; MIC ratio, Table 1", "value": "~32", "unit": "fold"}]}, {"smiles": "CN(C(=O)c1cc(I)cc(I)c1O)c1ccc(Oc2ccccc2)cc1", "note": "[Compound 5d]", "values": [{"measurement": "MIC C. difficile 630", "setting": "[1]; Table 1, strain 630", "value": ">32", "unit": "µg/mL"}, {"measurement": "MIC C. difficile 4118", "setting": "[2]; [18]", "value": ">32", "unit": "µg/mL"}, {"measurement": "growth inhibitory activity against CD630 and CD4118 (in words)", "setting": "[3]", "value": "inactive"}]}, {"smiles": "Cc1ccc(Oc2ccc(NC(=O)c3cc(I)cc(I)c3O)cc2)cc1", "note": "[Compound 5f]", "values": [{"measurement": "MIC C. difficile 630", "setting": "[1]; Table 1, strain 630", "value": 0.13, "unit": "µg/mL"}, {"measurement": "MIC C. difficile 4118", "setting": "[2]; [18]", "value": 0.25, "unit": "µg/mL"}, {"measurement": "growth inhibitory activity against CD630 and CD4118 (in words)", "setting": "[3]", "value": "high in vitro potency"}]}, {"smiles": "O=C(Nc1ccc([N+](=O)[O-])cc1Cl)c1cc(Cl)ccc1O", "note": "[Niclosamide, niclosamide]", "values": [{"measurement": "MIC", "setting": "[2]; [19]", "value": 4, "unit": "µg/mL"}, {"measurement": "cell viability HEK 293T/17 (MTS)", "setting": "[16]", "value": "significant decrease in viability"}, {"measurement": "cell viability HepG2 (MTS)", "setting": "[17]", "value": "significant decrease in viability"}]}]}
